Legend:
Format in all cases: cell-based
human TASK-1 [1] = target: T1, human TASK-1 (Homo sapiens (Human), UniProt O14649); experiment: Two-electrode voltage clamp of human TASK-1 channels expressed in Xenopus laevis oocytes
Experimental: (§1) B-1. In Vitro Electrophysiological Analysis of the Human TASK-1 and TASK-3 Channels Via Two-Electrode Voltage Clamp Technique in Xenopus laevis Oocytes
(§2) Xenopus laevis oocytes were selected as described elsewhere by way of illustration [Decher et al., FEBS Lett. 492, 84-89 (2001)]. Subsequently, the oocytes were injected with 0.5-5 ng of a cRNA solution coding for TASK-1 or TASK-3. For the electrophysiological analysis of the channel proteins expressed in the oocytes, the two-electrode voltage clamp technique [Stiihmer, Methods Enzymol. 207, 319-339 (1992)] was used. The measurements were conducted as described [Decher et al., FEBS Lett. 492, 84-89 (2001)] at room temperature (21-22° C.) using a Turbo TEC 10CD amplifier (NPI), recorded at 2 kHz and filtered with 0.4 kHz. Substance administration was performed using a gravitation-driven perfusion system. Here, the oocyte is located in a measuring chamber and exposed to the solution stream of 10 ml/min. The level in the measuring chamber is monitored and regulated by sucking off the solution using a peristaltic pump.

human TASK-3 [2] = target: T2, human TASK-3 (Homo sapiens (Human), UniProt Q9NPC2); experiment: Two-electrode voltage clamp of human TASK-3 channels expressed in Xenopus laevis oocytes
T2 sequence (Q9NPC2 whole entry): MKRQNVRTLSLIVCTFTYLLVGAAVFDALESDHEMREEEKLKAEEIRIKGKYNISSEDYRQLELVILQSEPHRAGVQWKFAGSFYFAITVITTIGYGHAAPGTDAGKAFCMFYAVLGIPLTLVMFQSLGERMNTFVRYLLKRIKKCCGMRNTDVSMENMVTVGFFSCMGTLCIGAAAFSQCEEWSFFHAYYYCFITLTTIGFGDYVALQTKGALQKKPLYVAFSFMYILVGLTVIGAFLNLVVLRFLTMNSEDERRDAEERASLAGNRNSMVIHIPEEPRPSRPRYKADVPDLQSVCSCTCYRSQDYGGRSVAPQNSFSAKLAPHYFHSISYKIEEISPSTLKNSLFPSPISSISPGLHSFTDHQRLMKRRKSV
Experimental: as §1, §2

human TASK-1 [3] = target: T1, human TASK-1; experiment: Inhibition of recombinant TASK-1 in stably transfected CHO cells (voltage-sensitive dye, 40 mM KCl depolarization); conditions: 40 mM potassium chloride
Experimental: (§3) B-2. Inhibition of Recombinant TASK-1 and TASK-3 In Vitro
(§4) The investigations on the inhibition of the recombinant TASK-1 and TASK-3 channels were conducted using stably transfected CHO cells. The compounds according to the invention were tested in this case by application of 40 mM potassium chloride in the presence of a voltage-sensitive dye according to the methods described in detail in the following references [Whiteaker et al., Validation of FLIPR membrane potential dye for high-throughput screening of potassium channel modulators, J. Biomol. Screen. 6 (5), 305-312 (2001); Molecular Devices FLIPR Application Note: Measuring membrane potential using the FLIPR® membrane potential assay kit on Fluorometric Imaging Plate Reader (FLIPR®) systems, http://www.moleculardevices.com/reagents-supplies/assay-kits/ion-channels/flipr-membrane-potential-assay-kits]. The activity of the test substances was determined as their ability to inhibit a depolarization induced in the recombinant cells by 40 mM potassium chloride. The concentration which can block half of this depolarization is referred to as IC50.

human TASK-3 [4] = target: T2, human TASK-3; experiment: Inhibition of recombinant TASK-3 in stably transfected CHO cells (voltage-sensitive dye, 40 mM KCl depolarization); conditions: 40 mM potassium chloride
Experimental: as §3, §4

T1 sequence (O14649 whole entry): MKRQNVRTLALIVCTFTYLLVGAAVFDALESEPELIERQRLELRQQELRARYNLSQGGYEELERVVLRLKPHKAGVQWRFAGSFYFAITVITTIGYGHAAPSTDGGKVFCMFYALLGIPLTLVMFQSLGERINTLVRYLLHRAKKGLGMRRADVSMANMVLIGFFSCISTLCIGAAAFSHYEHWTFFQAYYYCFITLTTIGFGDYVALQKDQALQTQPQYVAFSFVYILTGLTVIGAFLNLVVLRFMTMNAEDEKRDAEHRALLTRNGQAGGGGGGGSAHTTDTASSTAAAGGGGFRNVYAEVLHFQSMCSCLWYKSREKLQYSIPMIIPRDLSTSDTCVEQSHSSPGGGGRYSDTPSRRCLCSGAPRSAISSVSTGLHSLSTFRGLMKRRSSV

| IC50 (human TASK-1 [1]) | IC50 (human TASK-3 [2]) | IC50 (human TASK-1 [3]) | IC50 (human TASK-3 [4]) | Structure (SMILES) |
| --- | --- | --- | --- | --- |
| 31.2 ± 1.7 nM | 970 ± 220 nM | 206 nM | 485 nM | COc1cccc(C(=O)N2CC3CN(Cc4c(-c5ccc(Br)cc5)nc5ccccn45)CC3C2)c1 (stereo not drawn) [Example 10] |
| 9.3 ± 2.5 nM | 21.8 ± 2.2 nM | 721 nM | 1900 nM | COc1cccc(C(=O)N2CC3CN(Cc4c(-c5ccc(Cl)cc5)nc5ccccn45)CC3C2)c1 (stereo not drawn) [Example 17] |
| 62.2 ± 7.9 nM | 44.1 ± 5.8 nM | 230 nM | 410 nM | COc1cccc(C(=O)N2CC3CN(Cc4c(-c5ccc(C(C)C)cc5)nc5ccccn45)CC3C2)n1 (stereo not drawn) [Example 25] |

From patent US10414765B2, “Substituted perhydropyrrolo[3,4-c]pyrrole derivatives and the use of same” (BAYER PHARMA AKTIENGESELLSCHAFT, priority 2015, dated 2019)
